Read-outs that look alike come from different tables or passages of the source.
Target: T1, human mAChR M1 (Homo sapiens, UniProt P11229)
T1 sequence (P11229 1-460): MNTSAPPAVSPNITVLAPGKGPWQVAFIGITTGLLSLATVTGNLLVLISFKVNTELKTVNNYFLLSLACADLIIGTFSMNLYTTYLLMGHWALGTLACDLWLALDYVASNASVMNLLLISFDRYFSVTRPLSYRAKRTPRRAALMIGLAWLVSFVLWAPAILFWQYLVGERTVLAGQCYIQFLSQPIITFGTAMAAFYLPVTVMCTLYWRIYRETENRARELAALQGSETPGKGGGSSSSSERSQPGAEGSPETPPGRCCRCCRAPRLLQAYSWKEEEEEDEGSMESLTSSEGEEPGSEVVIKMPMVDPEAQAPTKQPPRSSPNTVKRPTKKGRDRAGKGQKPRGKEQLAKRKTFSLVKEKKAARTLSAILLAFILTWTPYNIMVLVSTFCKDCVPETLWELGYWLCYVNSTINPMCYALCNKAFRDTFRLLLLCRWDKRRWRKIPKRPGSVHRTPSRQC
Test: mAChR M1 cell-based functional assay: calcium mobilization, positive allosteric modulator mode (increase in EC20 acetylcholine response)
Details: for EC50: read-out: Human M1 EC50; for Emax: read-out: Human M1 Emax (%)
In short: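 Calcium-flux assay in CHO-K1 cells stably expressing human M1, loaded with Fluo-4 AM (50 min, 37 °C) and read at 1 Hz. Compound (11-point, 1:3 series) was added at 4 s, EC20 acetylcholine at 144 s and EC80 at 230 s. PAM activity is the concentration-dependent rise in the EC20 response, fitted with a four-parameter logistic.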

Compound	EC50 (Table 2, human M1) [nM]	Emax (Table 2, human M1) [%]	Emax [%]
Cn1ccc(-c2ccc(Cc3cc(C(=O)NC4CC5(COC5)C4)nc4ccn(C)c34)cc2)n1 [Compound 475, 1-methyl-7-[[4-(1-methylpyrazol-3-yl)phenyl]methyl]-N-(2-oxaspiro[3.3]heptan-6-yl)pyrrolo[3,2-b]pyridine-5-carboxamide]	183	83.5	
Cn1ccc(-c2ccc(Cc3cc(C(=O)NCC4CCOCC4)nc4ccn(C)c34)cc2)n1 [Compound 476, 1-methyl-7-[[4-(1-methylpyrazol-3-yl)phenyl]methyl]-N-(tetrahydropyran-4-ylmethyl)pyrrolo[3,2-b]pyridine-5-carboxamide]	280	83.5	
Cn1ccc(-c2ccc(Cc3cc(C(=O)NC4CCOCC4(C)C)nc4ccn(C)c34)cc2)n1 (centres unmarked) [Compound 477, N-(3,3-dimethyltetrahydropyran-4-yl)-1-methyl-7-[[4-(1-methylpyrazol-3-yl)phenyl]methyl]pyrrolo[3,2-b]pyridine-5-carboxamide]	200	86.4	
Cn1ccc2nc(C(=O)N[C@H]3CCOC[C@@H]3O)cc(Cc3ccc(-c4nccs4)cc3)c21 [Compound 478, N-[(3R,4S)-3-hydroxytetrahydropyran-4-yl]-1-methyl-7-[(4-thiazol-2-ylphenyl)methyl]pyrrolo[3,2-b]pyridine-5-carboxamide]	6.24	53.2	
Cn1ccc2nc(C(=O)N[C@H]3CCCC[C@@H]3O)cc(Cc3ccc(-c4nccs4)cc3)c21 [Compound 479, N-[(1S,2S)-2-hydroxycyclohexyl]-1-methyl-7-[(4-thiazol-2-ylphenyl)methyl]pyrrolo[3,2-b]pyridine-5-carboxamide]	41	52.5	
Cn1ccc2nc(C(=O)NC3CCOCC3)cc(Cc3ccc(-c4nccs4)cc3)c21 [Compound 480, 1-methyl-N-tetrahydropyran-4-yl-7-[(4-thiazol-2-ylphenyl)methyl]pyrrolo[3,2-b]pyridine-5-carboxamide]	360	57.2	
Cn1ccc2nc(C(=O)NC3CC4(COC4)C3)cc(Cc3ccc(-c4nccs4)cc3)c21 [Compound 481, 1-methyl-N-(2-oxaspiro[3.3]heptan-6-yl)-7-[(4-thiazol-2-ylphenyl)methyl]pyrrolo[3,2-b]pyridine-5-carboxamide]	386	57	
Cn1ccc2nc(C(=O)N[C@H]3CC[C@@H]3O)cc(Cc3ccc(-c4nccs4)cc3)c21 [Compound 482, N-[(1S,2S)-2-hydroxycyclobutyl]-1-methyl-7-[(4-thiazol-2-ylphenyl)methyl]pyrrolo[3,2-b]pyridine-5-carboxamide]	171	61.2	
Cn1ccc2nc(C(=O)N[C@H]3CCC[C@@H]3O)cc(Cc3ccc(-c4nccs4)cc3)c21 [Compound 483, N-[(1S,2S)-2-hydroxycyclopentyl]-1-methyl-7-[(4-thiazol-2-ylphenyl)methyl]pyrrolo[3,2-b]pyridine-5-carboxamide]	65	58.6	
Cn1ccc2nc(C(=O)NC3CCOC(C)(C)C3)cc(Cc3ccc(-c4nccs4)cc3)c21 (centres unmarked) [Compound 484, N-(2,2-dimethyltetrahydropyran-4-yl)-1-methyl-7-[(4-thiazol-2-ylphenyl)methyl]pyrrolo[3,2-b]pyridine-5-carboxamide]	704		47.2
Cn1ccc2nc(C(=O)NC3CCOCC3(C)C)cc(Cc3ccc(-c4nccs4)cc3)c21 (centres unmarked) [Compound 485, N-(3,3-dimethyltetrahydropyran-4-yl)-1-methyl-7-[(4-thiazol-2-ylphenyl)methyl]pyrrolo[3,2-b]pyridine-5-carboxamide]	662		61.6
Cn1ccc2nc(C(=O)NCC3CCOCC3)cc(Cc3ccc(-c4nccs4)cc3)c21 [Compound 486, 1-methyl-N-(tetrahydropyran-4-ylmethyl)-7-[(4-thiazol-2-ylphenyl)methyl]pyrrolo[3,2-b]pyridine-5-carboxamide]	483	37.5	
Cn1ccc2nc(C(=O)NC3CC(F)(F)C3)cc(Cc3ccc(-c4nccs4)cc3)c21 [Compound 487, N-(3,3-difluorocyclobutyl)-1-methyl-7-[(4-thiazol-2-ylphenyl)methyl]pyrrolo[3,2-b]pyridine-5-carboxamide]	819	25.5	
Cn1ccc2nc(C(=O)NC3CC(F)C3)cc(Cc3ccc(-c4nccs4)cc3)c21 (centres unmarked) [Compound 488, N-(3-fluorocyclobutyl)-1-methyl-7-[(4-thiazol-2-ylphenyl)methyl]pyrrolo[3,2-b]pyridine-5-carboxamide]	1150	37.5	
Cn1ncc2nc(C(=O)NC3CC4(COC4)C3)cc(Cc3ccc(-c4cscn4)cc3)c21 [Compound 489, 1-Methyl-N-(2-oxaspiro[3.3]heptan-6-yl)-7-[(4-thiazol-4-ylphenyl)methyl]pyrazolo[4,3-b]pyridine-5-carboxamide]	2750	52	
Cn1ncc2nc(C(=O)N[C@@H]3CC[C@H]3O)cc(Cc3ccc(-c4cscn4)cc3)c21 [Compound 490, N-[(1R,2R)-2-hydroxycyclobutyl]-1-methyl-7-[(4-thiazol-4-ylphenyl)methyl]pyrazolo-[4,3-b]pyridine-5-carboxamide]	> 10000	61.9	
Cn1ncc2nc(C(=O)N[C@H]3CCC[C@@H]3O)cc(Cc3ccc(-c4cscn4)cc3)c21 [Compound 491, N-[(1S,2S)-2-hydroxycyelopentyl]-1-methyl-7-[(4-thiazol-4-ylphenyl)methyl]pyrazolo-[4,3-b]pyridine-5-carboxamide]	1710	72.9	
Cn1ncc2nc(C(=O)N[C@H]3CCCC[C@@H]3O)cc(Cc3ccc(-c4cscn4)cc3)c21 [Compound 492, N-[(1S,2S)-2-hydroxycyclohexyl]-1-methyl-7-[(4-thiazol-4-ylphenyl)methyl]pyrazolo-[4,3-b]pyridine-5-carboxamide]	504	73.3	
Cn1ncc2nc(C(=O)N[C@H]3CCOC[C@@H]3O)cc(Cc3ccc(-c4cscn4)cc3)c21 [Compound 493, N-[(3R,4S)-3-hydroxytetrahydropyran-4-yl]-1-methyl-7-[(4-thiazol-4-ylphenyl)-methyl]pyrazolo[4,3-b]pyridine-5-carboxamide]	176	65.5	
Cn1ncc2nc(C(=O)NCC3CCO3)cc(Cc3ccc(-c4cscn4)cc3)c21 (centres unmarked) [Compound 494, 1-methyl-N-(oxetan-2-ylmethyl)-7-[(4-thiazol-4-ylphenyl)methyl]pyrazolo-[4,3-b]pyridine-5-carboxamide]	5020	52.2	
Cn1ncc2nc(C(=O)NC[C@H]3CCCO3)cc(Cc3ccc(-c4cscn4)cc3)c21 [Compound 495, 1-methyl-N-[[(2R)-tetrahydrofuran-2-yl]methyl]-7-[(4-thiazol-4-ylphenyl)methyl]-pyrazolo[4,3-b]pyridine-5-carboxamide]	3910	65.1	
Cn1ncc2nc(C(=O)N[C@@H]3CC[C@H]3O)cc(Cc3ccc(-n4cccn4)cc3)c21 [Compound 496, N-[(1R,2R)-2-hydroxycyclobutyl]-1-methyl-7-[(4-pyrazol-1-ylphenyl)methyl]pyrazolo-[4,3-b]pyridine-5-carboxamide]	> 10000	65.7	
Cn1ncc2nc(C(=O)N[C@H]3CCC[C@@H]3O)cc(Cc3ccc(-n4cccn4)cc3)c21 [Compound 497, N-[(1S,2S)-2-hydroxycyelopentyl]-1-methyl-7-[(4-pyrazol-1-ylphenyl)methyl]pyrazolo-[4,3-b]pyridine-5-carboxamide]	1180	68.1	
Cn1ncc2nc(C(=O)N[C@H]3CCCC[C@@H]3O)cc(Cc3ccc(-n4cccn4)cc3)c21 [Compound 498, N-[(1S,2S)-2-hydroxycyclohexyl]-1-methyl-7-[(4-pyrazol-1-ylphenyl)methyl]pyrazolo-[4,3-b]pyridine-5-carboxamide]	428	67.3	
Cn1ncc2nc(C(=O)N[C@H]3CCOC[C@@H]3O)cc(Cc3ccc(-n4cccn4)cc3)c21 [Compound 499, N-[(3R,4S)-3-hydroxytetrahydropyran-4-yl]-1-methyl-7-[(4-pyrazol-1-ylphenyl)methyl]-pyrazolo[4,3-b]pyridine-5-carboxamide]	267	65.3	
Cn1ncc2nc(C(=O)NC3CC4(COC4)C3)cc(Cc3ccc(-n4cccn4)cc3)c21 [Compound 500, 1-methyl-N-(2-oxaspiro[3.3]heptan-6-yl)-7-[(4-pyrazol-1-ylphenyl)methyl]pyrazolo-[4,3-b]pyridine-5-carboxamide]	> 10000	63.1	
Cn1ncc2nc(C(=O)NCC3CCO3)cc(Cc3ccc(-n4cccn4)cc3)c21 (centres unmarked) [Compound 501, 1-methyl-N-(oxetan-2-ylmethyl)-7-[(4-pyrazol-1-ylphenyl)methyl]pyrazolo[4,3-b]-pyridine-5-carboxamide]	> 10000	57.4	
Cn1ncc2nc(C(=O)NC[C@H]3CCCO3)cc(Cc3ccc(-n4cccn4)cc3)c21 [Compound 502, 1-methyl-7-[(4-pyrazol-1-ylphenyl)methyl]-N-[[(2R)-tetrahydrofuran-2-yl]methyl]-pyrazolo[4,3-b]pyridine-5-carboxamide]	4140	67.2	

Reference: patent US11111251B2, “Positive allosteric modulators of the muscarinic acetylcholine receptor M1” (Vanderbilt University, priority 2016, dated 2021)
